These results are taken from US8318954B2, “Cleavable carnitine compound” (Nou Life Sciences, Inc., priority 2006, dated 2012).

Entries after “also recorded” stand apart in the source; their conditions may differ.

Data set [1] relates to diabetic rats. The conditions noted are these: streptozocin diabetic rats, sciatic nerve; amount administered not specified; cited from earlier work.
In the next data set the test system is mice and rats. To be noted: mice and rats, cited from earlier work.
For data set [2], the system named is diabetic polyneuropathy patients. To be noted: cited from earlier work.
In another data set the test system is rats. The conditions noted are these: 10 mg/kg cisplatin s.c. seven days, oral 300 mg/kg acetyl L-carnitine, 300 mg/kg carnitine mixture, 50 mg/kg α-lipoic acid; cited from earlier work.
Data set [3] relates to streptozotocin-induced diabetic rats. To be noted: 20 mg/kg/day for two weeks, six weeks after diabetes induction; vs untreated diabetic rats; cited from earlier work.
For data set [4], the system named is diabetic rats. The conditions noted are these: diabetic rat, 30 days after sciatic nerve cutting; diet: 200 mg/kg acetyl L-carnitine, 200 mg/kg carnitine mixture, 50 mg/kg α-lipoic acid daily; cited from earlier work.
For another data set, the system named is Wobbler mice. The conditions noted are these: twenty days oral, acetyl L-carnitine 200 mg/kg, carnitine mixture 200 mg/kg, α-lipoic acid 50 mg/kg; cited from earlier work.
The test system of data set [5] is C. elegans. Put plainly: Toxicity testing in C. elegans, 96 well plate, bacterial clearance (OD620). The class given is in vivo. The conditions noted are these: highest concentration tested, 2 mM; L1-stage N2 animals, OD620 up to 44 hours; listed as LC. How it is done: The work plan included a i) characterization of the compounds for toxicity in C. elegans and then, using subtoxic concentrations, a ii) characterization of compound effects on neuronal sensitivity as detected by TAV technology. Toxicity characterization follows a well established standard operating protocol used in previous toxicity-type assays in C. elegans. The initial TAV characterization of compound-mediated effects on C. elegans used a number of compound concentrations and incubation times that were selected by NemaRx as being most likely to detect any TAV-related effects that the compounds may have. […] 0% provides a ‘background’ measure, 6% typically gives intermediate TAV responses (and as such should provide a good starting point to detect compound-mediated increased TAV responses), and 12% usually gives robust responses. No obvious effects were detected for either of the four compounds. While the experimental setup provides a good first pass, the limitation lies in the relatively small number of animals that are assayed at each intensity (30). Subtle effects compound-mediated up-regulation at 6% laser intensity may be missed. • Single Intensity Testing: The two highest non-toxic compound concentrations for each of the four compounds were tested at 6% laser intensity. The number of datapoints collected was between 50-80 LA and >100 for the three other compounds. […] The experiment was carried out in quadruplicate. […] Stock Dilution Setup
Two 96 well microtiter plates set up which were incubated at 20 C (both 96 well plates were identical, i.e. the experiment was done in duplicate). Each well on the plates was set up with 100 L1-stage N2 animals in NGM with a 1:20 dilution of concentrated HB101 E. coli (food source) in a volume of 50 μl. Compounds (see below) were then added to the wells. For water controls and compound stocks/dilutions in water (DH LA, NAC) 1 μl was added to each well (1:50 dilutions). For DMSO controls and compound stocks/dilutions in DMSO (LA) 0.5 μl was added to each well (1:100 dilutions). […]

In data set [6] the test system is C. elegans. Briefly: Thermal avoidance (TAV) 11 step dose response testing. In kind it is in vivo. The conditions noted are these: highest concentration of LC, laser intensities 0% to 100% in 10% intervals, quadruplicate. The method, then:
One 24 well microtiter plate was set up and incubated overnight on the shaker at 20° C. Each well on the plate was set up with 600 L3/L4-stage N2 animals in NGM with a 1:20 dilution of concentrated HB101 E. coli (food source) in a volume of 300 μl. Before the animal/HB101 solution was added, test compounds were pipetted into wells. For DMSO controls and compound stocks/dilutions in DMSO (LC) 3 μl was added to each well (1:100 dilutions). No OD620 measurements were taken but the animals were visually scored after 22 h incubation).
Dose Responses—setup & general notes on analysis: Same as for previous dose response experiments except that the data collection settings were modified. Per plate settings for the dose response experiments were as follows: […]

Data set [7] is described as follows: Hydrolysis study of LC Conjugate (pH/time study, followed by TLC). In kind it is physicochemical. The method, then: Control: Free lipoic acid 1% solution in methanol/water
Substrate: LC Conjugate, 3% solution in methanol
A study on the stability and cleavability of LC Conjugate was performed in water at pH ranged from 5.5 to 8.0 at RT (20° C.).
The pH was adjusted using NaOH and HCl solutions.
Since substrate and cleaved products are non-UV sensitive, TLC was used to follow the progress of hydrolysis.

For `O=C(O)CCCCC1CCSS1` (centres unmarked) [LA, Lipoic acid], the NMCV in the data set on diabetic rats [1] is 39.9 ± 2.1 m/sec. Further, the tolerability and toxicity result in the data set on mice and rats (individually or in combination at high doses) was “good tolerability and limited toxicity”. The “dose that can be parenterally administered” value in the data set on mice and rats (parenteral) is on record as at most 100 mg/kg. Moreover, the “neuropathic symptoms and defects” value in [2] (600 mg i.v. per day for 3 weeks) was “appears to reduce pain, paraethesia and numbness, and to improve neuropathic defects”. In addition, the “neuropathic defects and cardiac autonomic neuropathy” value in data set [2] (subsequent oral treatment for 4-7 months) is listed as “reduces neuropathic defects an improves cardiac autonomic neuropathy”. The Equilibrium time in the data set with rats is 9.9 ± 0.8 s. In addition, in data set [3], the “sciatic endoneutral blood flow” value is recorded as “improved” and the “sciatic motor nerve NCV” value was “improved”. For the same molecule, in the data set with diabetic rats [4], the “Density of tibial nerve degenerate elements” value was 0.20 ± 0.04 per 100 nm^2 and the “Number of tibial nerve degenerate elements” value is 590 ± 0.70. The “% increase in running time” value in the data set on Wobbler mice was 40 ± 3.9%.
Consider “Acetyl-L-Carnitine-Lipoic acid conjugate [LC Conjugate]”, for which the toxicity result with C. elegans [5] is listed as “No toxic effects; also recorded: no toxicity observed”. The “sensitivity / response rate in 11 step dose response” value is “increases sensitivity not at lower stimulus intensities, but instead at higher intensities” with C. elegans [6] (listed as LC) and “Possible higher response rate at higher stimulus intensities” with C. elegans [6] (listed as Lipoic Acid+N-Acetyl Carnitine conjugate). Moreover, the cleavability result in data set [7] (under experimental conditions) is on record as “completely cleavable”. The “Rate of hydrolysis (cleavage)” value in data set [7] (water, pH 5.5 to 8.0, RT) is given as “pH dependent”. In [7] (water, pH 6.0, RT (20° C.), TLC, visual observation), the hydrolysis result is reported as “Mild hydrolysis”. In addition, the rate of hydrolysis result in [7] (water, pH 7.0 and above, RT (20° C.), TLC, visual observation) is “quite noticeable”. Moreover, in [7] (water, pH 8.0, RT (20° C.), TLC, visual observation), the “time within which almost complete hydrolysis was noted” value was at most 90 min. Besides, in [7] (water, under pH 5.0, RT (20° C.), TLC, visual observation), the stability result was “stable”.
